Test results as given in patent publication US11434241B2, “Pyrimidine derivatives for prevention and treatment of bacterial infections” (UNIVERSITE DE LIEGE, priority 2018, dated 2022).

Test system: S. epidermidis (ATCC 35984) 24h-mature biofilm
Experiment: S. epidermidis 24h-mature biofilm, crystal violet biomass
Type: cell-based, Staphylococcus epidermidis
Conditions: 80 μM; 24 h treatment of 24-hour mature biofilm
Description: In another experiment we let adhere 0.5×10^8 CFU/ml S. epidermidis cells for 4 hr and let the biofilm form for additional 24 hr in presence of 0.25% glucose, at this point we treated the biofilm with different concentrations of molecule 2329 for 24 h in TSB with 0.25% glucose and determined the biofilm biomass using the crystal violet staining.
For biofilm analysis, we first washed the biofilm 3 times with NaCl 0.9% to eliminate all planktonic bacteria, before incubation with a staining Crystal Violet 1% solution in distilled H2O (dH2O).
Wells are washed 3 times with dH2O to eliminate unbound crystal violet. 400 μl Acetic Acid 10% is then added and incubated at RT for 10 min. Absorbance is measured in triplicate at 570 nm, reflecting total biomass of the biofilm.

## CCCSc1nc(N[C@@H]2C[C@H]2c2ccc(F)c(F)c2)c2ncn(C)c2n1 [Molecule 2329, N-((1R,2S)-2-(3,4-difluorophenyl)cyclopropyl)-9-methyl-2-(propylthio)-9H-purin-6-amine]
  mature biofilm biomass (crystal violet, absorbance 570 nm): could reduce
